Data from ChEMBL document CHEMBL3751784, “Synthesis of novel 1-substituted triazole linked 1,2-benzothiazine 1,1-dioxido propenone derivatives as potent anti-inflammatory agents and inhibitors of monocyte-to-macrophage differentiation” (2015).
The source made the active and inactive calls. The rule behind the calls is not given here.

How the values were obtained:
[1] = (§1) Antiinflammatory activity in human THP1 cells assessed as inhibition of PMA-induced MCP-1 secretion at 10 uM preincubated for 2 hrs followed by PMA addition measured after 48 hrs by ELISA; format: functional; conditions: THP-1
[2] = Antiinflammatory activity in human THP1 cells assessed as inhibition of PMA-induced IL-1beta secretion at 10 uM preincubated for 2 hrs followed by PMA addition measured after 48 hrs by ELISA; format: functional; conditions: THP-1
[3] = (§2) Antiinflammatory activity in human THP1 cells assessed as inhibition of PMA-induced TNFalpha secretion at 10 uM preincubated for 2 hrs followed by PMA addition measured after 48 hrs by ELISA; format: functional; conditions: THP-1
[4] = Cytotoxicity against human THP1 cells assessed as cell viability at 20 uM after 48 hrs by tryphan blue dye exclusion assay relative to control; format: functional; conditions: THP-1, 48 h, read-out: Activity
[5] = system: THP-1; test: as §2; format: functional
[6] = system: THP-1; test: Inhibition of PMA-induced MMP1 transcript level in human THP1 cells at 15 uM preincubated for 2 hrs followed by PMA addition measured after 24 hrs by RT-PCR analysis; format: functional, cell-based
[7] = system: THP-1; test: Inhibition of PMA-induced monocyte to macrophage differentiation in human THP1 cells assessed as reduction in CD-36 transcript level at 15 uM preincubated for 2 hrs followed by PMA addition measured after 24 hrs by RT-PCR analysis; format: functional, cell-based
[8] = system: THP-1; test: Antiinflammatory activity in human THP1 cells assessed as inhibition of PMA-induced MCP-1 secretion preincubated for 2 hrs followed by PMA addition measured after 48 hrs by ELISA; format: functional, cell-based
[9] = system: THP-1; test: Antiinflammatory activity in human THP1 cells assessed as inhibition of PMA-induced TNFalpha secretion preincubated for 2 hrs followed by PMA addition measured after 48 hrs by ELISA; format: functional, cell-based
[10] = system: THP-1; test: Inhibition of PMA-induced monocyte to macrophage differentiation in human THP1 cells assessed as reduction in LOX-1 transcript level at 15 uM preincubated for 2 hrs followed by PMA addition measured after 24 hrs by RT-PCR analysis; format: functional, cell-based
[11] = system: THP-1; test: Inhibition of PMA-induced monocyte to macrophage differentiation in human THP1 cells assessed as reduction in MMP9 enzyme activity at 15 uM preincubated for 2 hrs followed by PMA addition measured after 48 hrs by gelatin zymographic analysis; format: functional, cell-based
[12] = system: THP-1; test: Inhibition of PMA-induced monocyte to macrophage differentiation in human THP1 cells assessed as reduction in MMP2 enzyme activity at 15 uM preincubated for 2 hrs followed by PMA addition measured after 48 hrs by gelatin zymographic analysis; format: functional, cell-based
[13] = system: THP-1; test: Inhibition of PMA-induced MMP9 transcript level in human THP1 cells at 15 uM preincubated for 2 hrs followed by PMA addition measured after 24 hrs by RT-PCR analysis; format: functional, cell-based
[14] = system: THP-1; test: Inhibition of PMA-induced monocyte/macrophage invasion in human THP1 cells at 15 uM preincubated for 2 hrs followed by PMA addition measured after 48 hrs by collagen-coated Boyden chamber invasion assay; format: functional, cell-based
[15] = system: THP-1; test: Inhibition of PMA-induced monocyte to macrophage differentiation in human THP1 cells assessed as reduction in cell adherence at 15 uM preincubated for 2 hrs followed by PMA addition measured after 48 hrs by phase contrast microscopic analysis; format: functional, cell-based
[16] = system: THP-1; test: Antiinflammatory activity in human THP1 cells assessed as inhibition of PMA-induced COX2 mRNA level preincubated for 2 hrs followed by PMA addition measured after 48 hrs by RT-PCR analysis; format: functional, cell-based
[17] = system: THP-1; test: Inhibition of PMA-induced monocyte to macrophage differentiation in human THP1 cells assessed as reduction in cell size at 15 uM preincubated for 2 hrs followed by PMA addition measured after 48 hrs by mitotracker dye-based confocal microscopic analysis; format: functional
[18] = system: THP-1; test: Inhibition of PMA-induced monocyte to macrophage differentiation in human THP1 cells assessed as reduction in lysosomal activity at 15 uM preincubated for 2 hrs followed by PMA addition measured after 48 hrs by lysotracker dye-based fluorescence microscopic analysis; format: functional, cell-based
[19] = system: THP-1; test: Antiinflammatory activity in human THP1 cells assessed as inhibition of PMA-induced IL-1beta secretion preincubated for 2 hrs followed by PMA addition measured after 48 hrs by ELISA; format: functional, cell-based
[20] = system: THP-1; test: Inhibition of PMA-induced monocyte to macrophage differentiation in human THP1 cells assessed as reduction in cell adherence at 20 uM preincubated for 2 hrs followed by PMA addition measured after 48 hrs by phase contrast microscopic analysis; format: functional, cell-based
[21] = system: THP-1; test: as §1; format: functional

SMILES	inhibition at 10 µM [1] [%]	inhibition at 10 µM [2] [%]	inhibition at 10 µM [3] [%]	viability at 20 µM [4] [%]	inhibition [5]	other results
CN1C(C(=O)Nc2ccccn2)=C(O)c2ccccc2S1(=O)=O [PIROXICAM]	11.4	21.8	25.8	–	–	–
CN1C(C(=O)/C=C/c2cn(-c3ccc(F)cc3)nn2)=C(O)c2ccccc2S1(=O)=O	58.9	43.9	–	95.3	inactive	–
CN1C(C(=O)/C=C/c2cn(CC(=O)Nc3cccc(Cl)c3)nn2)=C(O)c2ccccc2S1(=O)=O	84	80.4	91.1	98.2	–	inhibition [6]: Active; inhibition [7]: Active; inhibition [8]: Dose-dependent effect; inhibition [9]: Dose-dependent effect; inhibition [10]: Active; inhibition [11]: Active; inhibition [12]: inactive; inhibition [13]: Active; inhibition [14]: Active; inhibition [15]: Active; inhibition [16]: Active; inhibition [17]: Active; inhibition [18]: Active; inhibition [19]: Dose-dependent effect
CN1C(C(=O)/C=C/c2cn(CC(=O)Nc3cccc(F)c3)nn2)=C(O)c2ccccc2S1(=O)=O	48.2	69.5	70.7	96.5	–	inhibition [8]: Dose-dependent effect; inhibition [9]: Dose-dependent effect; inhibition [20]: inactive; inhibition [16]: Active; inhibition [19]: Dose-dependent effect
CN1C(C(=O)/C=C/c2cn(-c3ccc(C(F)(F)F)cc3)nn2)=C(O)c2ccccc2S1(=O)=O	12.7	17.7	–	96.6	inactive	–
CN1C(C(=O)/C=C/c2cn(-c3ccc(F)c(Cl)c3)nn2)=C(O)c2ccccc2S1(=O)=O	–	16.3	–	94.3	inactive	inhibition [21]: inactive
CN1C(C(=O)/C=C/c2cn(-c3cccc([N+](=O)[O-])c3)nn2)=C(O)c2ccccc2S1(=O)=O	30.7	25.6	–	92.6	inactive	–
CN1C(C(=O)/C=C/c2cn(CC(=O)Nc3ccc(Cl)c(C(F)(F)F)c3)nn2)=C(O)c2ccccc2S1(=O)=O	88.4	93.6	93.2	94.3	–	inhibition [8]: Dose-dependent effect; inhibition [9]: Dose-dependent effect; inhibition [20]: inactive; inhibition [16]: Active; inhibition [19]: Dose-dependent effect
COc1ccc(NC(=O)Cn2cc(/C=C/C(=O)C3=C(O)c4ccccc4S(=O)(=O)N3C)nn2)cc1	64.8	49.8	62.9	94.5	–	–
Cc1ccc(NC(=O)Cn2cc(/C=C/C(=O)C3=C(O)c4ccccc4S(=O)(=O)N3C)nn2)cc1	87.2	74.9	84.7	97	–	inhibition [6]: Active; inhibition [7]: Active; inhibition [8]: Dose-dependent effect; inhibition [9]: Dose-dependent effect; inhibition [10]: Active; inhibition [11]: Active; inhibition [12]: inactive; inhibition [13]: Active; inhibition [14]: Active; inhibition [15]: Active; inhibition [16]: Active; inhibition [17]: Active; inhibition [18]: Active; inhibition [19]: Dose-dependent effect
Cc1ccc(-c2cc(C(F)(F)F)nn2-c2ccc(S(N)(=O)=O)cc2)cc1 [CELECOXIB]	20.1	31.1	37.4	–	–	–
COc1ccc(-n2cc(/C=C/C(=O)C3=C(O)c4ccccc4S(=O)(=O)N3C)nn2)cc1	58.9	53.9	–	94.4	inactive	–
CN1C(C(=O)/C=C/c2cn(CC(=O)Nc3ccccc3)nn2)=C(O)c2ccccc2S1(=O)=O	76.7	49.3	33.3	96.2	–	–
CN1C(C(=O)/C=C/c2cn(-c3cccc(C(F)(F)F)c3)nn2)=C(O)c2ccccc2S1(=O)=O	–	23.9	–	93.8	inactive	inhibition [21]: inactive
CN1C(C(=O)/C=C/c2cn(-c3ccccc3)nn2)=C(O)c2ccccc2S1(=O)=O	31.9	56.9	24	94.2	–	–
COc1cccc(-n2cc(/C=C/C(=O)C3=C(O)c4ccccc4S(=O)(=O)N3C)nn2)c1	–	42.6	–	94.2	inactive	inhibition [21]: inactive
CN1C(C(=O)/C=C/c2cn(-c3ccccc3F)nn2)=C(O)c2ccccc2S1(=O)=O	–	40.2	–	96.1	inactive	inhibition [21]: inactive
CN1C(C(=O)/C=C/c2cn(CC(=O)Nc3ccc(F)cc3)nn2)=C(O)c2ccccc2S1(=O)=O	41.4	42.4	73.4	92.5	–	–
CN1C(C(=O)/C=C/c2cn(-c3ccccc3Br)nn2)=C(O)c2ccccc2S1(=O)=O	16.2	45.9	13.7	94.4	–	–
CN1C(C(=O)/C=C/c2cn(CC(=O)NC3CCCCC3)nn2)=C(O)c2ccccc2S1(=O)=O	56.1	47.7	39.7	95.2	–	–
CN1C(C(=O)/C=C/c2cn(-c3ccc(F)cc3F)nn2)=C(O)c2ccccc2S1(=O)=O	29.6	47.7	11.2	96.2	–	–
Cc1ccc(-n2cc(/C=C/C(=O)C3=C(O)c4ccccc4S(=O)(=O)N3C)nn2)cc1	45.2	50.2	–	94.3	inactive	–
CN1C(C(=O)/C=C/c2cn(-c3ccc([N+](=O)[O-])cc3)nn2)=C(O)c2ccccc2S1(=O)=O	31.5	36.5	–	93	inactive	–
CCCCCCCCn1cc(/C=C/C(=O)C2=C(O)c3ccccc3S(=O)(=O)N2C)nn1	40.9	64.7	2.9	92.3	–	–
CN1C(C(=O)/C=C/c2cn(CC(=O)Nc3ccc(C(F)(F)F)cc3)nn2)=C(O)c2ccccc2S1(=O)=O	81.1	91.1	94.2	95.1	–	inhibition [8]: Dose-dependent effect; inhibition [9]: Dose-dependent effect; inhibition [20]: inactive; inhibition [16]: Active; inhibition [19]: Dose-dependent effect
CN1C(C(=O)/C=C/c2cn(-c3cccc(Cl)c3)nn2)=C(O)c2ccccc2S1(=O)=O	5.4	37.3	–	96	inactive	–
CN1C(C(=O)/C=C/c2cn(CC(=O)Nc3c(F)cccc3F)nn2)=C(O)c2ccccc2S1(=O)=O	41.3	46.3	31.3	95.6	–	–
CN1C(C(=O)/C=C/c2cn(CC(=O)Nc3ccc(F)cc3Br)nn2)=C(O)c2ccccc2S1(=O)=O	65.4	63.8	59.8	93.6	–	–
CN1C(C(=O)/C=C/c2cn(-c3cc([N+](=O)[O-])ccc3Cl)nn2)=C(O)c2ccccc2S1(=O)=O	67.1	61.8	52.5	94.3	–	–
